Experimental data as given in PubChem BioAssay AID1919010 (Molecular Pharmacology Branch, DTP, NCI, 2023).

Tested on: Hs578T complex spheroid growth, percent test/control
Assay: Anticancer human tumor Hs578T cell line growth inhibition [AhR];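 further: luminescent viability signal as a proxy for spheroid growth; spheroids exposed to agents for one week after three days of growth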
Details: for IC50: curve of first compound; for viability, T/C: stronger effect = lower value
How it was run: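 Complex tumor spheroids co-cultured with HUVEC and human MSC stroma; AhR antagonists tested in combination with standard-of-care and investigational agents. Top concentration at or near clinical Cmax (else 10 microM), half-log dilutions; growth expressed as percent test/control.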

[1] = second compound 0.1 µM, first compound 0.00949 µM
[2] = second compound 0.1 µM, first compound 0.03 µM
[3] = second compound 0.1 µM, first compound 0.0949 µM
[4] = second compound 0.1 µM, first compound 0.3 µM
[5] = second compound 0.1 µM, first compound 0.949 µM
[6] = second compound 0.1 µM, first compound 3 µM
[7] = second compound 0.316 µM, first compound 0.00949 µM
[8] = second compound 0.316 µM, first compound 0.03 µM
[9] = second compound 0.316 µM, first compound 0.0949 µM
[10] = second compound 0.316 µM, first compound 0.3 µM
[11] = second compound 0.316 µM, first compound 0.949 µM
[12] = second compound 0.316 µM, first compound 3 µM
[13] = second compound 1 µM, first compound 0.00949 µM
[14] = second compound 1 µM, first compound 0.03 µM
[15] = second compound 1 µM, first compound 0.0949 µM
[16] = second compound 1 µM, first compound 0.3 µM
[17] = second compound 1 µM, first compound 0.949 µM
[18] = second compound 1 µM, first compound 3 µM
[19] = second compound 3.16 µM, first compound 0.00949 µM
[20] = second compound 3.16 µM, first compound 0.03 µM
[21] = second compound 3.16 µM, first compound 0.0949 µM
[22] = second compound 3.16 µM, first compound 0.3 µM
[23] = second compound 3.16 µM, first compound 0.949 µM
[24] = second compound 3.16 µM, first compound 3 µM
[25] = second compound 10 µM, first compound 0.00949 µM
[26] = second compound 10 µM, first compound 0.03 µM
[27] = second compound 10 µM, first compound 0.0949 µM
[28] = second compound 10 µM, first compound 0.3 µM
[29] = second compound 10 µM, first compound 0.949 µM
[30] = second compound 10 µM, first compound 3 µM

Row | SMILES | IC50 (second compound 0.1 µM) | IC50 (second compound 0.316 µM) | IC50 (second compound 1 µM) | IC50 (second compound 3.16 µM) | IC50 (second compound 10 µM) | viability, T/C [1] | viability, T/C [2] | viability, T/C [3] | viability, T/C [4] | viability, T/C [7] | viability, T/C [8] | viability, T/C [9] | viability, T/C [10] | viability, T/C [13] | viability, T/C [14] | viability, T/C [15] | viability, T/C [16] | viability, T/C [19] | viability, T/C [20] | viability, T/C [21] | other results
1 | CCN(c1cc(-c2ccc(CN3CCOCC3)cc2)cc(C(=O)NCc2c(C)cc(C)[nH]c2=O)c1C)C1CCOCC1 + CC(CO)NC(=O)c1cc(-c2ccc(Cl)cc2)nn(-c2cnn(C)c2)c1=O | > 3000 nM | > 3000 nM | > 3000 nM | > 3000 nM | > 3000 nM | 116% | 112% | 112% | 102% | 114% | 112% | 122% | 109% | 113% | 121% | 120% | 107% | 107% | 113% | 115% | viability, T/C [5]: 104%; viability, T/C [6]: 112%; viability, T/C [11]: 114%; viability, T/C [12]: 98.4%; viability, T/C [17]: 111%; viability, T/C [18]: 113%; viability, T/C [22]: 111%; viability, T/C [23]: 104%; viability, T/C [24]: 106%; viability, T/C [25]: 107%; viability, T/C [26]: 104%; viability, T/C [27]: 107%; viability, T/C [28]: 92.3%; viability, T/C [29]: 101%; viability, T/C [30]: 106%
2 | Nc1ncn(C2CC(O)C(CO)S2)c(=O)n1 (stereo not given) + CC(CO)NC(=O)c1cc(-c2ccc(Cl)cc2)nn(-c2cnn(C)c2)c1=O | > 300 nM | > 300 nM | > 300 nM | > 300 nM | > 300 nM | 117% | 119% | 115% | 98.6% | 128% | 110% | 117% | 108% | 121% | 121% | 122% | 118% | 116% | 116% | 105% | viability, T/C (second compound 0.1 µM, first compound 0.000949 µM): 115%; viability, T/C (second compound 0.1 µM, first compound 0.003 µM): 124%; viability, T/C (second compound 0.316 µM, first compound 0.000949 µM): 118%; viability, T/C (second compound 0.316 µM, first compound 0.003 µM): 114%; viability, T/C (second compound 1 µM, first compound 0.000949 µM): 112%; viability, T/C (second compound 1 µM, first compound 0.003 µM): 110%; viability, T/C (second compound 3.16 µM, first compound 0.000949 µM): 123%; viability, T/C (second compound 3.16 µM, first compound 0.003 µM): 122%; viability, T/C [22]: 112%; viability, T/C (second compound 10 µM, first compound 0.000949 µM): 113%; viability, T/C (second compound 10 µM, first compound 0.003 µM): 104%; viability, T/C [25]: 112%; viability, T/C [26]: 113%; viability, T/C [27]: 110%; viability, T/C [28]: 104%
3 | O=C(C=Cn1cnc(-c2cc(C(F)(F)F)cc(C(F)(F)F)c2)n1)NNc1cnccn1 + CC(CO)NC(=O)c1cc(-c2ccc(Cl)cc2)nn(-c2cnn(C)c2)c1=O | 305 nM | 314 nM | 352 nM | 333 nM | 300 nM | 102% | 108% | 89.4% | 51.8% | 109% | 103% | 87.7% | 53.3% | 107% | 102% | 94.8% | 55.1% | 108% | 100% | 91.7% | viability, T/C [5]: 19.2%; viability, T/C [6]: 17.2%; viability, T/C [11]: 19.6%; viability, T/C [12]: 18.4%; viability, T/C [17]: 20.8%; viability, T/C [18]: 18.6%; viability, T/C [22]: 51.5%; viability, T/C [23]: 28.2%; viability, T/C [24]: 21.9%; viability, T/C [25]: 97%; viability, T/C [26]: 102%; viability, T/C [27]: 100%; viability, T/C [28]: 50%; viability, T/C [29]: 22.6%; viability, T/C [30]: 24.4%
